{"source": "patent US20080268036A1", "about": "“Co-processing of active pharmaceutical/nutraceutical ingredients” (JRS Pharma, priority 2007, published 2008)", "assay_type": "physicochemical", "description": "The slurry should be thoroughly agitated during preparation with a suitable device (like an electric lab stirrer). The desired temperature for heating the slurry will vary depending on the solubility of the active agent and the temperature that the active agent begins to degrade."}
{"smiles": "Cl.N[C@H]1C(O)O[C@H](CO)[C@@H](O)[C@@H]1O", "note": "(stereo partly shown) [Glucosamine HCl]", "values": [{"measurement": "temperature dependent solubility in water", "result": "greater than 60 °C"}]}
